Assay results as given in US20260240871A1, “PHARMACEUTICAL COMPOSITION FOR PREVENTION OR TREATMENT OF AGE-RELATED MUSCULOSKELETAL DISORDERS” (SEOUL NATIONAL UNIVERSITY R&DB FOUNDATION, priority 2023, published 2026).

Key:
[1] = system: senescence-induced cells (IMR90, BJ); assay: cholesterol measurement (Filipin staining, enzymatic measurement) in senescent cells; format: cell-based, human
Experimental: (§1) DNA damage-induced senescence was induced in human diploid fibroblasts (IMR90, BJ) by treatment with ionizing radiation (12 Gy) or bleomycin (10 μg/ml, for 24 hours). Specifically, IMR90 and BJ cells expressing hTERT (DNA damage-induced senescence; SEN), IMR90 cells co-expressing hTERT and H-RasV12 [oncogene-induced senescence; SEN (OIS)], and replication-exhausted [replicative senescent cells; SEN (REP)] IMR90 cells were prepared. Normal proliferating cells (PRO) were used as the control. […] The prepared senescent cell models were treated with probucol (10 μM) and/or glyburide (75 μM), and immunoblotting analysis was performed on lysosome immunoprecipitates (LysoIP).

[2] = system: DNA damage-induced senescent cells (SEN) and oncogene-induced senescent cells (SEN (OIS)) of human diploid fibroblasts (IMR90, BJ); assay: SASP factor and senescence marker gene expression (qRT-PCR) in senescent cell models; format: cell-based; settings: for expression of SASP genes (IL1A, IL1B): senescent cells (SEN), cholesterol depletion, cholesterol stimulation or lovastatin treatment; for expression of CDKN2A or CDKN1A: senescent cells
Experimental: DNA damage-induced senescence was induced in human diploid fibroblasts (IMR90, BJ) by treatment with ionizing radiation (12 Gy) or bleomycin (10 μg/ml, for 24 hours). Specifically, IMR90 and BJ cells expressing hTERT (DNA damage-induced senescence; SEN), IMR90 cells co-expressing hTERT and H-RasV12 [oncogene-induced senescence; SEN (OIS)], and replication-exhausted [replicative senescent cells; SEN (REP)] IMR90 cells were prepared. Normal proliferating cells (PRO) were used as the control.
To investigate the functional consequences of age-related changes in cholesterol levels, cellular cholesterol was depleted using methyl-β-cyclodextrin (MβCD), and multiple senescence markers were examined during DNA damage-induced aging, including senescence-associated β-galactosidase (SA-β-Gal) activity, cell cycle arrest, and expression of senescence-associated secretory phenotype (SASP) factors.
To specifically confirm the effect of increased expression of lysosomal ABCA1 on SASP activity, experiments were conducted using probucol, an ABCA1 modulator that has been reported to limit its localization to intracellular compartments including lysosomes, and glyburide, a broad-spectrum inhibitor of the ABC transport protein family that promotes channel closure of ABC transporters. The prepared senescent cell models were treated with probucol (10 μM) and/or glyburide (75 μM), and immunoblotting analysis was performed on lysosome immunoprecipitates (LysoIP).

[3] = target: T1, lysosomal ABCA1 (Homo sapiens, UniProt O95477); assay: immunoblotting of lysosome immunoprecipitates (LysoIP) in senescent cells; format: cell-based; settings: senescent cells (SEN); probucol 10 μM, glyburide 75 μM
T1 construct: endogenous ABCA1 was abundantly present in lysosomes; endogenous in cells; host or cells: senescent human diploid fibroblasts (IMR90, BJ; hTERT-expressing, DNA damage-induced senescence)
Experimental: as §1, with “control. It was analyzed how ABCA1, which mediates cholesterol transport at the plasma membrane, is involved in cholesterol accumulation.” for “control.”

[4] = system: male mice subjected to DMM surgery (post-traumatic osteoarthritis); assay: post-traumatic osteoarthritis progression after DMM surgery, intra-articular injection; format: in vivo, mouse; settings: for osteoarthritis progression / cartilage destruction in knee joints (Safranin O staining) / expression levels of SASP factors (IL6, MMP13) and senescence markers (p16, nuclear HMGB1) / osteoarthritis-related pain symptoms / pain indicators: intra-articular; for osteoarthritis progression / cartilage destruction in knee joints (Safranin O staining): probucol 200 μM 10 μl weekly for 6 weeks, hydrogel with 3 mM glyburide 10 μl every 10 days for 10 weeks; for expression levels of SASP factors (IL6, MMP13) and senescence markers (p16, nuclear HMGB1) / osteoarthritis-related pain symptoms / pain indicators: probucol 200 μM weekly for 6 weeks, 3 mM glyburide hydrogel every 10 days for 10 weeks
Experimental: In the case of mice, male (C57BL/6J) mice were used since estrogen in female mice may influence osteoarthritis progression and serve as a confounding factor. Post-traumatic osteoarthritis was induced in 12-week-old male mice by destabilization of the medial meniscus (DMM) surgery. To investigate the role of lysosomal cholesterol partitioning regulated by ABCA1 in age-related inflammation in vivo, ABCA1 modulators were administered to male mice subjected to DMM surgery, and their effects on the progression of post-traumatic osteoarthritis were observed. Male mice subjected to either DMM surgery or sham surgery were intra-articularly injected with 10 μl of probucol (200 μM) dissolved in DMSO once a week for 6 weeks, or with 10 μl of PBS-suspended hydrogel containing 3 mM glyburide (PBS:hydrogel=1:1) every 10 days for 10 weeks. After the treatment period, the mice were sacrificed.

[5] = system: mouse primary cultured chondrocytes (SEN); assay: SASP regulation in senescent mouse primary cultured chondrocytes (SEN); format: cell-based; settings: probucol 10 μM, glyburide 75 μM, lovastatin 2 μM
Experimental: Mouse primary cultured chondrocytes were isolated from the femoral condyle and tibial plateau of 5-day-old ICR mice.
The ABCA1-deficient mouse primary chondrocyte model was prepared using siRNAs of SEQ ID NOs: 5 to 8. • ABCA1 siRNA #1: SEQ ID NO. 5 • ABCA1 siRNA #2: SEQ ID NO. 6 • ABCA1 siRNA #3: SEQ ID NO. 7 • ABCA1 siRNA #4: SEQ ID NO. 8
Senescence of chondrocytes promotes age-related musculoskeletal disorders. The correlation between cholesterol metabolism and ABCA1 was analyzed in a DNA damage-induced aging model (SEN) of mouse primary cultured chondrocytes isolated from the femoral condyles and tibial plateaus of 5-day-old ICR mice.
When ABCA1 was depleted in mouse primary cultured chondrocytes (SEN), the expression of SASP genes, including Mmp3, Mmp13 and Cxcl1, was suppressed, while the expression of Cdkn2a remained unchanged (FIG. 11B). […] Induction of cholesterol depletion inhibited the sustained activation pattern of mTORC1 (FIG. 11D), which was consistent with the results from the senescent cell model (in vitro) in Example 1. Therefore, it was confirmed that the lysosomal ABCA1 gene is a major factor in SASP regulation in vivo.

[6] = system: mTORC1; assay: mTORC1 activity in senescent cells; format: cell-based, human
Experimental: as §1

[7] = SEN and SEN (OIS), glyburide 75 μM
[8] = intra-articular probucol 200 μM weekly for 6 weeks
[9] = DNA damage-induced senescent cells (SEN) lacking ABCA1, probucol 10 μM

T1 sequence (O95477 whole entry): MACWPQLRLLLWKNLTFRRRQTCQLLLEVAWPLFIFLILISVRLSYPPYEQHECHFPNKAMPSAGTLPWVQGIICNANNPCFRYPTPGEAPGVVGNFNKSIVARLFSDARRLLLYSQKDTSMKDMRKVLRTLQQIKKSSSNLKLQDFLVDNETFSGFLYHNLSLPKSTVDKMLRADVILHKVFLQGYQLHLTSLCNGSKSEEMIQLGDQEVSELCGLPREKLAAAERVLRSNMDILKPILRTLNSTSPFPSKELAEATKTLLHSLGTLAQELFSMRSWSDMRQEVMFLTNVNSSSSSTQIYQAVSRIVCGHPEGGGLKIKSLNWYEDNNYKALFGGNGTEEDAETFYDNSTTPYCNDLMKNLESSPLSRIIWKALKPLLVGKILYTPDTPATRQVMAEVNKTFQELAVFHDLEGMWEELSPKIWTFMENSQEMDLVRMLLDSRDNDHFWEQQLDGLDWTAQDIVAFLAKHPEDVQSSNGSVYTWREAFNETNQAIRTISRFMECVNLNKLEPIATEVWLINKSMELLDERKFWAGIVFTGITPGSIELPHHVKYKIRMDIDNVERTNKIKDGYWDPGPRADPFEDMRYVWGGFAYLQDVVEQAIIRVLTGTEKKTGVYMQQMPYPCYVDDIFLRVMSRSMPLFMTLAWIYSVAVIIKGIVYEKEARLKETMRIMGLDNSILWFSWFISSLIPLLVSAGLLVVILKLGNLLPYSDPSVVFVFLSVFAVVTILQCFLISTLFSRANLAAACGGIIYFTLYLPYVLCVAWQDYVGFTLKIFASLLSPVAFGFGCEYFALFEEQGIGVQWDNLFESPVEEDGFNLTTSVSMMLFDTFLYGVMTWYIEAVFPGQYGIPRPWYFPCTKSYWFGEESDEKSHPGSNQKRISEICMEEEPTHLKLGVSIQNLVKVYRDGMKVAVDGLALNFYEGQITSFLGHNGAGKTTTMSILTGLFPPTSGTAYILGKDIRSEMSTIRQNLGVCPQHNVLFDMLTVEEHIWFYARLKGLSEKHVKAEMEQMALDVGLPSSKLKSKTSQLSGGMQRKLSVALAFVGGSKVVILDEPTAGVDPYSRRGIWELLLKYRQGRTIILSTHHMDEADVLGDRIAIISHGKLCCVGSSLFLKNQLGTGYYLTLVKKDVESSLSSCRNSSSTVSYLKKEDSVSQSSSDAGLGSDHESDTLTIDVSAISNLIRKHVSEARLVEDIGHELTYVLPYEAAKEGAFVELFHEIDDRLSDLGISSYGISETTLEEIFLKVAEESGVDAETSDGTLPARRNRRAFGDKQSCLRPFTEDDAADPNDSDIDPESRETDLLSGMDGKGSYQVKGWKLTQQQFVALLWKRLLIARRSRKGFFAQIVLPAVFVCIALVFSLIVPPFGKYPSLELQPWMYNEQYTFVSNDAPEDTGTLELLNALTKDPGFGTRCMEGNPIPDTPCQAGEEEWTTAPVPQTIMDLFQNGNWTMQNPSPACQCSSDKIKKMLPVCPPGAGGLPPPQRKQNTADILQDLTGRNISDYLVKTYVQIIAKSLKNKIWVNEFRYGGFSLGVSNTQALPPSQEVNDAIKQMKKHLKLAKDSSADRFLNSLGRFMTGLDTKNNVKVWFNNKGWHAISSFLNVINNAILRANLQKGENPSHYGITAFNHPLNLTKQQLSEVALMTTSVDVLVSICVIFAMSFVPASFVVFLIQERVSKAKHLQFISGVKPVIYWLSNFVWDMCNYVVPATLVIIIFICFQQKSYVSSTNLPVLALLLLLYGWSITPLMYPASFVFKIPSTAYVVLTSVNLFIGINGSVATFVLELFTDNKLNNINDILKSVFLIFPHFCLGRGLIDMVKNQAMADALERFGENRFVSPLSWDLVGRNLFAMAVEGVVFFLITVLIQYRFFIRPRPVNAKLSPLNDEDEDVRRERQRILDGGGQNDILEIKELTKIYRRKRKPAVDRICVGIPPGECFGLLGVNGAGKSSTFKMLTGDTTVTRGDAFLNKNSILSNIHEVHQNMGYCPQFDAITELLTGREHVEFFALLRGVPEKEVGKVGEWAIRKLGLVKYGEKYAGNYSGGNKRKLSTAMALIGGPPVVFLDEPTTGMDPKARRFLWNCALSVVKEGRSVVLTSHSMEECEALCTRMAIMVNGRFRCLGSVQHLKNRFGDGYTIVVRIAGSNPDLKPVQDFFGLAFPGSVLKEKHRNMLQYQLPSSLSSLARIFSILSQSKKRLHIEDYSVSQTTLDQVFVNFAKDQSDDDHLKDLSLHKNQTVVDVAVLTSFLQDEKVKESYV

expression of lysosomal ABCA1 (LysoIP immunoblot) [3]	Compound	expression of SASP genes (IL1A, IL1B) [2]	expression of CDKN2A or CDKN1A [2]	osteoarthritis progression / cartilage destruction in knee joints (Safranin O staining) [4]	expression levels of SASP factors (IL6, MMP13) and senescence markers (p16, nuclear HMGB1) [4]	osteoarthritis-related pain symptoms / pain indicators [4]	SASP factors (Mmp3, Mmp13, Cxcl1) [5]	also measured
	methyl-β-cyclodextrin [MBCD]	reduced						cholesterol levels ([1]; senescence-induced cells, cholesterol-depleted (MBCD+) conditions): decreased
	CC(C)CCC[C@@H](C)[C@H]1CC[C@H]2[C@@H]3CC=C4C[C@@H](O)CC[C@]4(C)[C@H]3CC[C@]12C [cholesterol]	significantly increased	little effect					
decrease	COc1ccc(Cl)cc1C(=O)NCCc1ccc(S(=O)(=O)NC(=O)NC2CCCCC2)cc1 [glyburide]			alleviated	decreased	amelioration	suppressed	lysosomal cholesterol accumulation [1, 7]: inhibited; SASP activity [2, 7]: inhibited; SASP activation / SASP factor expression induced by probucol ([2]; senescence-induced cells treated with probucol plus test substance): completely suppressed
further enhanced	CC(C)(Sc1cc(C(C)(C)C)c(O)c(C(C)(C)C)c1)Sc1cc(C(C)(C)C)c(O)c(C(C)(C)C)c1 [probucol]		minimal effect	worsened	increased	worsened	upregulated	Osteoarthritis Research Society International (OARSI) grades [4, 8]: higher; dynamic and static weight-bearing capacity [4, 8]: impaired; hindlimb withdrawal threshold [4, 8]: reduced; mTORC1 activation [6, 9]: not activated; mTORC1 activity ([6]; senescence-induced cells, probucol treatment): activation; cholesterol accumulation (lysosomal) ([1]; DNA damage-induced senescent cells (SEN), probucol 10 μM): promoted; SASP (IL1A, IL1B) activation [2, 9]: not activated; SASP activity ([2]; oncogene-induced senescent cells (SEN (OIS)), probucol 10 μM): increased; SASP activity ([2]; senescence-induced cells (SEN), probucol treatment): increased
	CC[C@H](C)C(=O)O[C@H]1C[C@@H](C)C=C2C=C[C@H](C)[C@H](CC[C@@H]3C[C@@H](O)CC(=O)O3)[C@H]21 [lovastatin]	suppressed	without affecting				suppressed	expression of the cholesterol transporter gene ABCA1 ([2]; senescent cells vs normal proliferating cells (PRO)): also suppressed
